Earlier results as cited in patent US20130079416A1 (BOIRON, priority 2010, published 2013).
Read-outs that look alike come from different tables or passages of the source.

Legend:
[1] = rats, long time and very high doses, alone or in combination with phenazone (Johansson, 1981)
[2] = human
[3] = rat, oral, multiple doses; methemoglobinemia-carboxyhaemoglobin, changes in blood cell and erythrocyte count

CCOc1ccc(NC(C)=O)cc1 [phenacetin, N-(4-ethoxyphenyl)acetamide]
Incidence of renal tumours [1]: slightly increases the incidence of renal tumours
Lowest toxic dose (TDL0) ([2]; acute, route not indicated): 74 mg/kg
Lowest toxic dose (TDL0) ([2]; oral, multiple doses, tumorigenic-carcinogenic according to RTECS criteria, renal tumours): 80 mg/kg/63 mg/kg/63 years (intermittent)
Lowest toxic dose (TDL0) [3]: 10 mg/kg/ mg/kg/4 weeks (intermittent)
